Tests used:
Format in all cases: cell-based, human
[1] = system: multiple myeloma cell adhesion to osteoclasts; experiment: Adhesion assay: multiple myeloma cells to osteoclasts; settings: 6 hours incubation; independent of CCR1 expression on MM cells
Procedure: (§1) Cell lines: The dexamethasone (Dex)-sensitive (MM.1S) human MM cell line was provided by Dr Steven Rosen (Northwestern University, Chicago, Ill.). The INA6 human IL-6-dependent MM cell line was provided by Dr Renate Burger (University of Kiel, Kiel, Germany) (see Burger et al., J. Hematol. 2:42-53 (2001)) and cultured in the presence of 2.5 ng/mL IL-6 (R&D Systems, Minneapolis, Minn.). The OPM1 myeloma cell line was provided by Dr Lief Bergsagel (Mayo Clinic, Scottsdale, Ariz.), and the U266 cell line was obtained from the American Type Culture Collection (Rockville, Md.). All MM cell lines were cultured in RPMI 1640 media (Sigma Chemical) containing 10% fetal bovine serum (FBS), 2 mM L-glutamine, 100 U/mL penicillin, and 100 μg/mL streptomycin (Gibco, Grand Island, N.Y.).
(§2) Multiple myeloma cell lines were labeled with calcein AM (Invitrogen) according to the manufacturer's instructions and plated in a 96-well plates with OCs, fibronectin (FBN; 20 μg/mL), or media, with or without Compound 51. After 6 hours of incubation, plates were washed and fluorescence of the adherent cells was measured using the Multimode Reader Mithras LB 940 (Berthold Technologies, Wildbad, Germany). […] As also shown in FIG. 3, there were no effects on MM cell adhesion to fibronection (FBN).

[2] = system: MM cell adhesion to fibronectin (FBN); experiment: Adhesion assay: multiple myeloma cells to fibronectin; settings: 6 hours incubation, FBN 20 μg/mL
Procedure: as §1, §2

[3] = system: osteoclasts generated from peripheral blood mononuclear cells (PBMCs); experiment: Osteoclast formation and TRAP assay
Procedure: Osteoclast formation. Osteoclasts were generated from peripheral blood mononuclear cells (PBMCs) from healthy volunteers by Ficoll-Paque gradient separation and cultured in 6-well or 96-well plates (0.5×10^6 cells/cm^2). After 2 hours, nonadherent PBMCs were removed, and adherent cells were cultured for 21 days in α-MEM containing 10% FBS and 1% penicillin-streptomycin (Mediatech, Herndon, Va.), as well as 50 ng/mL of macrophage colony-stimulating factor (M-CSF; R&D Systems, Minneapolis, Minn.) and RANKL (PeproTech, Rocky Hill, N.J.).
After 3 weeks, cells were fixed with citrate-acetone solution and stained for tartrate-resistant acid phosphatase (TRAP) using an acid phosphatase leukocyte staining kit (Sigma Chemical) according to the manufacturer's instructions. TRAP^+ OCs containing 3 or more nuclei per cell were enumerated. Each OC formation assay was performed at least 3 times using PBMCs from different donors.

[4] = system: osteoclast activity (bone resorption); experiment: Pit formation assay (osteoclast bone resorption on dentin slices); settings: 10 nM, 3 weeks
Procedure: Osteoclast activity was assayed by bone resorption enumerating resorption pits. PBMCs were cultured (0.5×10^6 cells/well) on dentin slices (Immunodiagnostic Systems, Boldon, United Kingdom) in 96-well plates as per the manufacturer's guidelines, and then stimulated with RANKL and M-CSF (50 ng/mL); Compound 51 was added as indicated in FIG. 2. After 3 weeks, adherent cells were scraped off gently with 0.1% Triton. Bone slices were washed in distilled water and stained with 1% toluidine solution. Resorption pits were then quantified by light microscopy using the public domain National Institutes of Health (NIH) Image J software version 1.36b. Each pit area assay was performed at least 3 times with PBMCs from different donors.

[5] = system: multiple myeloma cells co-cultured with osteoclasts; experiment: Long-term co-culture of osteoclasts and multiple myeloma cells
Source text: MM primary cells: Patient tumor cells were isolated as described in Kiziltepe et al., Blood 110:709-718 (2007). Following appropriate informed consent, obtained in accordance with the Declaration of Helsinki and with approval by the Institutional Review Board of the Dana-Farber Cancer Institute (Boston, Mass.), MM patient cells were separated from bone marrow (BM) samples by antibody-mediated positive selection using anti-CD138 magnetic activated cell separation microbeads (Miltenyi Biotech, Gladbach, Germany).
(§3) Co-culture experiments: Osteoclasts were harvested with cell dissociation buffer (Invitrogen, Carlsbad, Calif.) and seeded in 96-well or 24-well plates (approximately 1.5−3×10^4 cells/cm^2). After washing, multiple myeloma cells were added to the wells and incubated with media or with Compound 51 (10 nM) for the specified times at 37° C. For multiple myeloma cell proliferation, DNA synthesis was measured by tritiated thymidine uptake (3H-TdR; Perkin Elmer, Boston, Mass.), pulsing multiple myeloma cells with 3H-TdR (0.5 μCi/well [0.0185 MBq]L) during the last 8 hours of 48-hour cultures. At the end of the culture, cells were harvested onto paper filters with an automatic cell harvester (Cambridge Technology, Cambridge, Mass.) and counted using the LKB Betaplate scintillation counter (Wallac, Gaithersburg, Md.). To assess cell survival, viable multiple myeloma cells were counted by trypan blue staining.
Osteoclasts were plated in a 24-well plate (3×10^4 cells/well) with either INA6 mutliple myeloma cells (5×10^3 cells/well) or primary patient multiple myeloma cells (3×10^5 cells/well) for 5 days using the general method described above.

INA6 cells = experiment: Short-term co-culture of osteoclasts and multiple myeloma cells (thymidine uptake); settings: 48 hours
Procedure: as §3
Osteoclasts were seeded in a 96-well plate at a density of 10^4 cells/well and cocultured with INA6 cells (3×10^4 cells/well) for 48 hours.

CC(C)(O)c1ccc2c(c1)C(=CCCN1CC[C@](O)(c3ccc(Cl)cc3)C(C)(C)C1)c1cccnc1CO2 [Compound 51, (4S)-4-(4-chlorophenyl)-1-{3-[7-(1-hydroxy-1-methylethyl)[1]benzoxepino[3,4-b]pyridin-5(11H)-ylidene]propyl}-3,3-dimethylpiperidin-4-ol]
multiple myeloma cell adhesion to osteoclasts [1]: almost complety inhibited
MM cell adhesion to fibronectin (FBN) [2]: no effects
reduction of osteoclast number compared to control ([3]; 10 nM, 3 weeks, TRAP+ OCs with 3 or more nuclei, p<0.05): 40-60%
dose dependence of decrease in osteoclast number ([3]; doses up to 100 nM): No dose-dependent effect
resorptive tracks and pit numbers ([4]; dentin slices): almost complete abrogation
bone resorption area, mean±SD, of total area per slice ([4]; control 8.7%±1.9%, P<0.01): 2.4%±1.2
survival advantage conferred by osteoclasts ([5]; INA6 cells, 5 days co-culture, 10 nM): almost completely abrogated
survival advantage conferred by osteoclasts ([5]; MM1.S cells (data not shown)): same effect was also noted
survival advantage conferred by osteoclasts ([5]; primary MM cells, 5 days co-culture, 10 nM): almost completely abrogated
antiproliferative effect on MM cells alone (INA6 cells; no osteoclasts): only modest antiproliferative effects
reduction of MM cell proliferative response induced by OCs (INA6 cells; INA6 cells co-cultured with osteoclasts, P<0.05): 50%
